Measured values: PMC9770967, “Native holdup (nHU) to measure binding affinities from cell extracts” (Science Advances, 2022)
*1 amine or outer side, *2 acyl side, *3 side chain or, on linkers, in order; H or OH if unused. Where a SMILES comes first, the peptide text is derived from it. The star is where a group is joined. X1 = O=C(CCCC[C@@H]1SC[C@@H]2NC(=O)N[C@@H]21)NCCCOCCOCCOCCCN*; Suc = O=C(CCC(=O)[*:2])[*:1]

Tests used:
SCRIB PDZ1 = settings: fragmentomic, isolated PDZ domain; cited from earlier work
Excerpt: Supplement sciadv.ade3828_table_s1.zip/sciadv.ade3828_table_s1.xlsx, sheet "nHU-WB_SP" | column: Domain-motif fragmentomic affinities (ProfAff)

SCRIB PDZ3 = settings: fragmentomic, isolated PDZ domain; cited from earlier work
Excerpt: (§1) Supplement sciadv.ade3828_table_s1.zip/sciadv.ade3828_table_s1.xlsx, sheet "nHU-WB_SP"

[1] = biological target: isolated PDZ domain of SNX27; settings: 10-mer PBM peptide vs isolated PDZ domain, holdup; cited from earlier work
SCRIB PDZ2 = settings: fragmentomic, isolated PDZ domain; cited from earlier work
Excerpt: as §1

SNX27_PDZ = test: nHU-MS, SNX27_PDZ bait, total SH-SY5Y extracts; format: binding, human
Experimental: The empty His6-AviTag-MBP-TEV vector was used to produce biotinylated MBP for control experiments. Proteins were coexpressed with BirA biotin ligase (PET21a-BirA, Addgene, no. 20857) in Escherichia coli BL21(DE3) cells. At isopropyl-β-D-thiogalactopyranoside (IPTG) induction (1 mM IPTG at 18°C overnight), 50 μM biotin was added to the media. Harvested cells were lysed in a buffer containing 50 mM tris (pH 7.5), 150 to 300 mM NaCl, 50 μM biotin, 2 mM β-mercaptoethanol, cOmplete EDTA-free protease inhibitor cocktail (Roche, Basel, Switzerland), 1% Triton X-100, and trace amount of deoxyribonuclease, ribonuclease, and lysozyme. Lysates were frozen at −20°C before further purification steps. Lysates were sonicated and centrifuged for clarification. Expressed proteins were captured on in-house prepacked Ni-IDA (Protino Ni-IDA Resin, Macherey-Nagel, Duren, Germany) columns and were washed with at least 10 column volumes of cold wash buffer [50 mM tris (pH 7.5), 150 mM NaCl, and 2 mM β-mercaptoethanol] before elution with 250 mM imidazole. The Ni elution was collected directly on a preequilibrated amylose column (amylose high flow resin, New England Biolabs, Ipswich, MA). Amylose column was washed with 5 column volumes of cold wash buffer before fractionated elution in a buffer containing 25 mM Hepes (pH 7.5), 150 mM NaCl, 1 mM TCEP, 10% glycerol, 5 mM maltose, and cOmplete EDTA-free protease inhibitor cocktail. The concentration of proteins was determined by their ultraviolet absorption at 280 nm before aliquots were snap-frozen in liquid nitrogen and stored at −80°C.
For saturating streptavidin resin with biotinylated peptides or biotin, 50 μl of streptavidin resin was mixed with biotin or peptide at 40 to 60 μM concentration in 6 to 6.5 resin volume for 60 min. To saturate streptavidin resin with biotinylated proteins, 50 μl of streptavidin resin (Streptavidin Sepharose High Performance, Cytiva) was mixed with biotinylated MBP or MBP-PDZ at 40 to 50 μM concentration in 20× resin volume for 60 min. After saturation, resins were washed a single time [10 resin volume, holdup buffer: 50 mM tris (pH 7.5), 300 mM NaCl, and 1 mM TCEP, 0.22-μm filtered] and were depleted with biotin (10 resin volume, 10 min, holdup buffer supplemented with 100 μM biotin). Last, resins were washed two times (10 resin volume, holdup buffer).
For single-point nHU experiments carried out at ~10 μM bait concentration, 50 μl of saturated streptavidin resin was mixed with 200 μl of cell lysate (2 mg/ml). Titration experiments were carried out by mixing control and bait-saturated resin and keeping the total resin volume constant; e.g., ~5 μM bait concentration can be achieved by mixing 25 μl of bait-saturated streptavidin resin with 25 μl of control resin and 200 μl of cell lysate (2 mg/ml). Control and bait-saturated resins were prepared in larger amounts, and a serial dilution was prepared with these presaturated resins to achieve different resin ratios.
Unless specified elswhere, the nHU mixture was incubated at 4°C for 2 hours. After the incubation ended, the resin was separated from the supernatant by a brief centrifugation (15 s, 2000 g). Then, half of the supernatant was removed by pipetting without any delay to avoid any resin contamination; e.g., 100 μl of supernatant is collected if 200 μl of cell lysate was used as analyte. Alternatively, the supernatant can be centrifuged an additional time to clarify it further, removing any possible resin contamination. In principle, the separation of the supernatant should be as fast as possible since any delay can perturb the equilibrium. […] Alternatively, the resin can be separated from the supernatant using filter plates (e.g., various products of Millipore, Burlington, MA) or spin columns (e.g., Pierce spin cups—cellulose acetate filter from Thermo Fisher Scientific, Waltham, MA) to achieve faster separation. […]

Compound: CC[C@H](C)[C@H](NC(=O)[C@H](CCC(N)=O)NC(=O)[C@H](CO)NC(=O)[C@@H](NC(=O)[C@H](CCC(N)=O)NC(=O)[C@@H](NC(=O)[C@H](CC(N)=O)NC(=O)[C@H](CCCNC(=N)N)NC(=O)[C@@H]1CCCN1C(=O)[C@H](CC(=O)O)NC(=O)CCC(=O)NCCCOCCOCCOCCCNC(=O)CCCC[C@@H]1SC[C@@H]2NC(=O)N[C@@H]21)[C@@H](C)O)[C@@H](C)O)C(=O)O [ABRAXAS2] ({X1-Suc}-DPRNTQTSQI-OH; C-terminus assumed)
- pKd_PDZ1 (SCRIB PDZ1): 4.02
- pKd_PDZ3 (SCRIB PDZ3): 4.01
- pKd (fragmentomic affinity) [1]: 4.04

Compound: CC[C@H](C)[C@H](NC(=O)CCC(=O)NCCCOCCOCCOCCCNC(=O)CCCC[C@@H]1SC[C@@H]2NC(=O)N[C@@H]21)C(=O)N[C@@H](CC(=O)O)C(=O)N[C@@H](CC(N)=O)C(=O)N[C@@H](CC(=O)O)C(=O)N[C@H](C(=O)N[C@@H](CCC(=O)O)C(=O)N[C@@H](CO)C(=O)N[C@H](C(=O)N[C@@H](C)C(=O)N[C@@H](CC(C)C)C(=O)O)[C@@H](C)O)[C@@H](C)O [ARHGAP17] ({X1-Suc}-IDNDTESTAL-OH; C-terminus assumed)
- pKd_PDZ1 (SCRIB PDZ1): 4.91
- pKd_PDZ3 (SCRIB PDZ3): 4.57
- pKd_PDZ2 (SCRIB PDZ2): 3.61
- pKd (fragmentomic affinity) [1]: 4.97

Compound: KARS1: Lysine--tRNA ligase
- pKapp_HU_not_filtered (SNX27_PDZ; apparent, Eq. 2, not filtered for significance): 4.711
- pKapp_significant_binders_HU (SNX27_PDZ; apparent, Eq. 2, significant binders (1 σ, P < 0.05)): 4.711
- BI_HU (SNX27_PDZ; n = 6): 0.3389
